Tests used:
[1] = test system: HepG2 (human hepatocellular carcinoma); experiment: MTT cytotoxicity assay, HepG2; assay type: cell-based; settings: for IC50: 72 h, maximal tested concentration 20.0 μM
Method: (§1) The cytotoxicity of ligustrazine-triterpenes derivatives was evaluated on five tumor cell lines (Bel-7402, HepG2, HT-29, Hela, and MCF-7) using the standard MTT assay. In the study, the antineoplastic drug cisplatin (DDP) was selected as the positive control. The MDCK cell line was used to test the toxicity of the ligustrazine-triterpenes derivatives and DDP.
(§2) The cell lines Bel-7402 (human hepatocellular carcinoma), HepG2 (human hepatocellular carcinoma), HT-29 (human colon carcinoma), Hela (human cervical cancer), MCF-7 (human breast cancer) were included in this study. All these cell lines were provided by the Chinese Academy of Medical Sciences & Peking Union Medical College. Cultures were maintained as monolayers in RPMI 1640 supplemented with 10% (v/v) heat inactivated fetal bovine serum and 1% (v/v) enicillin/streptomycin (Thermo Technologies, New York, NY, USA) at 37 °C in a humidified atmosphere with 5% CO2. The ligustrazine derivatives under study were dissolved in DMSO (Sigma, St. Louis, MO, USA) and added at required concentrations to the cell culture. Cells incubated without the preparations served as the control.
(§3) The cytotoxicity of the compounds was evaluated on five cancer cell lines (Bel-7402, HepG2, HT-29, Hela, MCF-7) by the standard MTT assay. In short, exponentially growing cells were seeded into 96-well plates at a density 10^4 cells/mL. The plates were incubated at 37 °C in a humidified 5% CO2 atmosphere. Cells were allowed to adhere to the surface for 24 h and then treated with serial dilutions of the compounds for 72 h. Later, aliquots of [3-(4,5-dimethylthiazol-2-yl)-2,5-diphenyltetrazolium bromide] (MTT) solution (20 μL, 5 mg/mL) were added to each well and the incubation was continued for an additional 4 h. Then the supernatant medium was thrown away. The dark blue formazan crystals formed within the healthy cells were solubilized with DMSO (150 μL) and the absorbance was measured in a plate reader (BIORAD 550 spectrophotometer, Bio-rad Life Science Development Ltd., Beijing, China) at 490 nm. Wells containing no drugs were used as control group. The IC50 values were defined as the concentration of compounds that produced a 50% reduction of surviving cells and calculated using Logit-method. Tumor cell growth inhibitory rate was calculated in the following Equation (1): % inhibition = (1 − Sample group OD/Control group OD) × 100% (1)

[2] = test system: MCF-7 (human breast cancer); experiment: MTT cytotoxicity assay, MCF-7; assay type: cell-based; settings: maximal tested concentration 20.0 μM
Method: as §1, §2, §3

[3] = test system: Hela (human cervical cancer); experiment: MTT cytotoxicity assay, Hela; assay type: cell-based; settings: 72 h, maximal tested concentration 20.0 μM
Method: as §1, §2, §3

[4] = test system: Madin-Darby canine kidney cell line (MDCK); experiment: MTT cytotoxicity (nephrotoxicity/selectivity) assay, MDCK; assay type: cell-based; settings: Canis lupus familiaris
[5] = test system: HepG2 cells; experiment: Apoptosis analysis by flow cytometry using Annexin V-FITC/PI staining; assay type: cell-based, human; settings: 72 h, control 6%
Method: To substantiate the ability of 4a to induce apoptosis, further analysis was carried out using Annexin V-FITC/PI double staining technique in HepG2 cells. Cells stained with Annexin V-FITC and PI were classified as necrotic (Q1; Annexin^−/PI^+), late apoptotic (Q2; Annexin^+/PI^+), intact (Q3; Annexin^−/PI^−), or early apoptotic (Q4; Annexin^+/PI^−) cells. […] Even at the minimum concentration of 5 μM, 4a induced cell apoptosis at a ratio of 75.7% after 72 h of treatment.
The Annexin V-FITC/PI flow cytometric assay was performed to determine the early and late apoptosis in this assay according to the instruction of the manufacturer (Annexin V-FITC/PI, Beijing BioDee Biotech. Co., Ltd., Beijing, China). Briefly, HepG2 cells were treated with various concentrations of compound 4a (5, 6, 7 μM) for 72 h at 37 °C, then the treated cells were washed twice with cold PBS and centrifuged at 1000 rpm for 5 min. The harvested cells were resuspended in 200 μL binding buffer, containing 10 μL Annexin V-FITC. After 15 min, the cells were washed twice and resuspended in 300 μL binding buffer. At the same time, 10 μL PI was added. Then the cells were immediately analyzed with a flow cytometry.

[6] = test system: HepG2 cells; experiment: Intracellular free Ca2+ detection (Fluo-3AM, flow cytometry); assay type: cell-based, human; settings: 72 h, control MFI 4773
Method: A sustained increase in intracellular Ca^2+ concentrations is recognized as a factor for cell death or injury. The level of intracellular free Ca^2+ is examined by the fluorescent dye Fluo-3AM. The Fluo-3 AM is converted to Fluo-3 upon deacetylation within the cells, and Fluo-3 increases green fluorescence upon Ca^2+ binding. […] As the concentration of 4a increased from 5.0 to 6.0 to 7.0 μM, intracellular free Ca^2+ fluorescence increased dramatically (from 4800 to 5612 to 6955). It was in accordance with the tendencies of mitochondrial membrane potential and cell apoptosis.
The level of intracellular free Ca^2+ was examined by the fluorescent dye Fluo-3AM. HepG2 cells (1 × 10^5 cells/mL) in logarithmic growth phase were cultured in 6-well plates for 24 h at 37 °C in incubator with 5% CO2. After exposed to different concentrations of 4a (5, 6, 7 μM) for 72 h, cells were harvested and washed twice with cold PBS, then resuspended in HBSS buffer with 10 μM Fluo-3AM (Fluo-3AM, Shanghai Beyotime Biotech. Co., Ltd., Shanghai, China), and incubated for 30 min at 37 °C in the dark. Detection of intracellular Ca^2+ was carried out by the Flow Cytometer at 488 nm excitation wavelength.

[7] = test system: HepG2 cells; experiment: Morphological observation using DAPI staining; assay type: cell-based, human; settings: HepG2, 2, 4, 8 μM for 72 h
Method: DAPI staining was used to evaluate apoptosis associated morphological changes in this assay. HepG2 cells were seeded in the six well plates at a density of 4 × 10^3 cells/well and incubated overnight. Then the cells were incubated in the presence of 4a at various concentrations (2, 4, 8 μΜ) at 37 °C and 5% CO2 for 72 h. Cells were then washed with PBS, fixed with 4% paraformaldehyde followed by 70% ethanol. Finally, fixed cells were stained with DAPI (DAPI, Molecular Probes/Invitrogen Life Technologies, Carlsbad, CA, USA) at the concentration of 1 mg/mL and incubated for 1 min in dark. The cell morphological changes were observed by fluorescent microscopy and images were captured by digital camera.

Question: With `C=C(C)[C@@H]1CC[C@]2(C(=O)OCc3nc(C)c(C)nc3C)CC[C@]3(C)C(CCC4[C@@]5(C)CC[C@H](O)C(C)(C)C5CC[C@]43C)C12` (stereo partly drawn) [Compound 4a, 3β-Hydroxy-lup-20(29)-ene-28-oic acid-3,5,6-trimethylpyrazin-2-methyl ester] as the compound, how does the IC50 [1] read?
Answer: The IC50 was 4.48 µM.

Question: What about the inhibition at 10 µM ([1]; Homo sapiens, HepG2, 10 μM, read-out: inhibition rate against HepG2) of the same compound?
Answer: The inhibition at 10 µM was 99.9%.

Question: And the IC50 ([1]; Homo sapiens, HepG2, 72 h)?
Answer: Its IC50 is < 5.23 µM.

Question: And the IC50 ([2]; 72 h)?
Answer: The IC50 was 4.23 µM.

Question: What about the IC50 ([2]; Homo sapiens, MCF7, 72 h) of the same compound?
Answer: Its IC50 is < 5.23 µM.

Question: What about the IC50 [3] of the same compound?
Answer: Its IC50 is 4.34 µM.

Question: And the IC50 ([3]; Homo sapiens, HeLa)?
Answer: The IC50 was < 5.23 µM.

Question: What about the inhibition at 10 µM ([4]; MDCK, 10 μM, read-out: inhibition rate against MDCK) of the same compound?
Answer: Its inhibition at 10 µM is ~26.5%.

Question: And the IC50 ([4]; maximal tested concentration 20.0 μM, toxicity to MDCK kidney cells)?
Answer: The IC50 was > 20 µM.

Question: And the “apoptosis ratio (early and late apoptosis)” value (“apoptosis ratio” below) ([5]; HepG2, 5 μM)?
Answer: Its value is 75.7%.

Question: And the “apoptosis ratio” value ([5]; HepG2, 6 μM)?
Answer: The value was 76.6%.

Question: And the “apoptosis ratio” value ([5]; HepG2, 7 μM)?
Answer: The value was 83.7%.

Question: And the “intracellular free Ca2+ fluorescence (MFI), Fluo-3AM” value (“intracellular free Ca2+ fluorescence” for short) ([6]; HepG2, 5 μM)?
Answer: The value was 4800.

Question: What about the “intracellular free Ca2+ fluorescence” value ([6]; HepG2, 6 μM) of the same compound?
Answer: Its value is 5612.

Question: And the “intracellular free Ca2+ fluorescence” value ([6]; HepG2, 7 μM)?
Answer: Its value is 6955.

Question: What about the “cell morphology after DAPI staining” value [7] of the same compound?
Answer: Its value is “displayed morphological features of apoptosis”.

From paper PMC4613240, “A Series of New Ligustrazine-Triterpenes Derivatives as Anti-Tumor Agents: Design, Synthesis, and Biological Evaluation” (International Journal of Molecular Sciences, 2015)
